The first assay has as its target T1, human somatostatin receptor subtype 2 (Homo sapiens, UniProt P30874).
T1 construct: expressed in transfected cells
Put plainly: Functional cAMP assay for SSTR2 agonists (HTRF) in CHO-K1 cells. The assay is classed as cell-based. The settings on record: CHO-K1 cells stably expressing human SST2, 20 min; read-out: hSST2 cAMP Avg EC50. From the text: General overview: All five SSTR subtypes are Gi coupled G-protein coupled receptors (GPCRs) that lead to decreases in intracellular cyclic AMP (cAMP) when activated by an agonist. Therefore, measurement of intracellular cAMP levels can be used to assess whether compounds of the invention are agonists of SSTR subtypes (John Kelly, Troy Stevens, W. Joseph Thompson, and Roland Seifert, Current Protocols in Pharmacology, 2005, 2.2.1-2.2). One example of an intracellular cAMP assay is described below.
Functional Assay for SSTR2 Agonists
Four days prior to the assay, 2,000 Chinese hamster ovary cells (CHO-K1, ATCC #CCL-61) stably expressing the human somatostatin receptor subtype 2 are plated in each well of a 96-well tissue culture-treated plate in Ham's F12 growth media (ThermoFisher #10-080-CM) supplemented with 10% donor bovine serum (Gemini Bio-Products #100-506), 100 U/mL penicillin; 100 ug/mL streptomycin; 2 mM L-glutamine (Gemini Bio-Products #400-110) and 0.2 mg/mL hygromycin B (GoldBio #31282-04-9). The cells are cultured at 37° C., 5% CO2 and 95% humidity. cAMP is measured with HTRF dynamic cAMP assay (Cisbio, #62AM5PEJ) per manufacturer's instructions. On the day of the assay, the media is aspirated and the cells are treated with 50 μL of stimulation buffer supplemented with 10.2 mM 3-Isobutyl-1-methylxanthine (IBMX, Millipore Sigma #15879) and 1.6 μM NKH477 (Tocris #1603), plus various dilutions of SMDCs of the present invention. The cells are incubated for 20 minutes at 37° C. (the final concentration of the compounds of the invention are typically 0-10,000 nM). The cells are treated with 50 μL of lysis buffer (HRTF cAMP kit, Cisbio) and incubated at room temperature for 30 minutes with rotary shaking at 600 rpm, and then diluted with 150 μL of stimulation buffer and shaken for an additional five minutes at 300 rpm. The lysate is transferred to 384-well plates and incubated for 1-24 hours at room temperature, and cAMP accumulation is detected by d2-labeled cAMP and Anti-cAMP-Cryptate. The time-resolved fluorescent signal is read using a m1000 Pro (Tecan) or CLARIOStar (BMG Labtech) microplate reader, where the samples are excited with light at 340 nm and emission light is measured at 620 nm and 665 nm. The data is expressed as a calculation of the fluorescence ratio (665 nm/620 nm). The intracellular cAMP concentrations are calculated by regression to a standard curve and are plotted vs. the concentration of the compounds of the invention. The EC50 of the compounds are calculated using standard methods. All data manipulations are in GraphPad Prism v9 (GraphPad, San Diego, CA).
T1 sequence (P30874 whole entry): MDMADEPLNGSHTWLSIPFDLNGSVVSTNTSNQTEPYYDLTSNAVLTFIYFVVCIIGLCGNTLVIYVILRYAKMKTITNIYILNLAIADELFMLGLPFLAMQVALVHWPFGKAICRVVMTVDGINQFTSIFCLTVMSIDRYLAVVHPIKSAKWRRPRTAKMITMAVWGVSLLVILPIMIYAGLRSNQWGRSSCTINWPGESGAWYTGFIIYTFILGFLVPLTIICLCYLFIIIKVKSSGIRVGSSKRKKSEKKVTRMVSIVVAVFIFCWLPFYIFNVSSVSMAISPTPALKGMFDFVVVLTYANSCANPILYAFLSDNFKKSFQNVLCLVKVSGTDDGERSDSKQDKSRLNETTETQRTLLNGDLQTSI
As to `COCCOCCOCCOCCOCCC(=O)NCCNc1ncc(-c2cc(C)cc(F)c2)c(N2CCC(N)CC2)c1-c1nc2ccc(Cl)cc2[nH]1` [Compound 14, N-(2-{[4-(4-aminopiperidin-1-yl)-3-(6-chloro-1H-1,3-benzodiazol-2-yl)-5-(3-fluoro-5-methylphenyl)pyridin-2-yl]amino}ethyl)-2,5,8,11,14-pentaoxaheptadecan-17-amide], the EC50 was found to be 0.048 nM.
Consider `Cc1cc(F)cc(-c2cnc(NCCOC(=O)NCCOCCOCCOCCOCCOCCNC(=O)CN3CCN(CC(=O)O)CCN(CC(=O)O)CCN(CC(=O)O)CC3)c(-c3nc4cc(Cl)ccc4[nH]3)c2N2CCC(N)CC2)c1` [Comp. 2, 2-(7-{[(17-{[(2-{[4-(4-aminopiperidin-1-yl)-3-(5-chloro-1H-1,3-benzodiazol-2-yl)-5-(3-fluoro-5-methylphenyl)pyridin-2-yl]amino}ethoxy)carbonyl]amino}-3,6,9,12,15-pentaoxaheptadecan-1-yl)carbamoyl]methyl}-4,10-bis(carboxymethyl)-1,4,7,10-tetraazacyclododecan-1-yl)acetic acid, reference compound], for which the EC50 came to 0.17 nM.
With `Cc1cc(F)cc(-c2cnc(NCCNC(=O)CCOCCOCCOCCOCCOCCNC(=O)CN3CCN(CC(=O)O)CCN(CC(=O)O)CCN(CC(=O)O)CC3)c(-c3nc4cc(Cl)ccc4[nH]3)c2N2CCC(N)CC2)c1` [Comp. 1, 2-{7-[({17-[(2-{[4-(4-aminopiperidin-1-yl)-3-(5-chloro-1H-1,3-benzodiazol-2-yl)-5-(3-fluoro-5-methylphenyl)pyridin-2-yl]amino}ethyl)carbamoyl]-3,6,9,12,15-pentaoxaheptadecan-1-yl}carbamoyl)methyl}-4,10-bis(carboxymethyl)-1,4,7,10-tetraazacyclododecan-1-yl}acetic acid, reference compound], the EC50 was determined as 0.075 nM.
For `Cc1cc(F)cc(-c2cnc(NC3CCN(C(=O)CCOCCOCCOCCOCCOCCOCCNC(=O)CN4CCN(CC(=O)O)CCN(CC(=O)O)CCN(CC(=O)O)CC4)CC3)c(-c3nc4cc(Cl)ccc4[nH]3)c2N2CCC(N)CC2)c1` [Compound 4, 2-[7-({[21-(4-{[4-(4-aminopiperidin-1-yl)-3-(5-chloro-1H-1,3-benzodiazol-2-yl)-5-(3-fluoro-5-methylphenyl)pyridin-2-yl]amino}piperidin-1-yl)-21-oxo-3,6,9,12,15,18-hexaoxahenicosan-1-yl]carbamoyl}methyl)-4,10-bis(carboxymethyl)-1,4,7,10-tetraazacyclododecan-1-yl]acetic acid], the EC50 was 0.2 nM.
Still for that read-out and setting: in the case of `Cc1cc(F)cc(-c2cnc(NCCCNC(=O)CCOCCOCCOCCOCCOCCNC(=O)CN3CCN4CCN5CCN(CC3)CC(=O)[O][In]([O]C(=O)C4)[O]C(=O)C5)c(-c3nc4cc(Cl)ccc4[nH]3)c2N2CCC(N)CC2)c1` [Compound 16, N-(3-{[4-(4-aminopiperidin-1-yl)-3-(5-chloro-1H-1,3-benzodiazol-2-yl)-5-(3-fluoro-5-methylphenyl)pyridin-2-yl]amino}propyl)-1-(2-{3,16,19-trioxo-2,17,18-trioxa-5,8,11,14-tetraaza-1-indatricyclo[9.6.3.2^5,^14]docosan-8-yl}acetamido)-3,6,9,12,15-pentaoxaoctadecan-18-amide] it was 0.11 nM.
Still for that read-out and setting: in the case of `Cc1cc(F)cc(-c2cnc(NCCNC(=O)CCOCCOCCOCCOCCOCCNC(=O)CN3CCN4CCN5CCN(CC3)CC(=O)[O][In]([O]C(=O)C4)[O]C(=O)C5)c(-c3nc4cc(Cl)ccc4[nH]3)c2N2CCC(N)CC2)c1` [Compound 15, N-(2-{[4-(4-aminopiperidin-1-yl)-3-(5-chloro-1H-1,3-benzodiazol-2-yl)-5-(3-fluoro-5-methylphenyl)pyridin-2-yl]amino}ethyl)-1-(2-{3,16,19-trioxo-2,17,18-trioxa-5,8,11,14-tetraaza-1-indatricyclo[9.6.3.2^5,14]docosan-8-yl}acetamido)-3,6,9,12,15-pentaoxaoctadecan-18-amide] it was 0.057 nM; in that of `Cc1cc(F)cc(-c2cnc(NCCOCCOCCOCCOCCNC(=O)CN3CCN4CCN5CCN(CC3)CC(=O)[O][In]([O]C(=O)C4)[O]C(=O)C5)c(-c3ccc(C(F)(F)F)cc3)c2N2CCC(N)CC2)c1` [Compound 18, N-(14-{[4-(4-aminopiperidin-1-yl)-5-(3-fluoro-5-methylphenyl)-3-[4-(trifluoromethyl)phenyl]pyridin-2-yl]amino}-3,6,9,12-tetraoxatetradecan-1-yl)-2-{3,16,19-trioxo-2,17,18-trioxa-5,8,11,14-tetraaza-1-indatricyclo[9.6.3.2^5,^14]docosan-8-yl}acetamide], 1.8 nM; in that of `Cc1cc(F)cc(-c2cnc(NC3CCN(C(=O)CCOCCOCCOCCOCCOCCOCCNC(=O)CN4CCN5CCN6CCN(CC4)CC(=O)[O][In]([O]C(=O)C5)[O]C(=O)C6)CC3)c(-c3nc4cc(Cl)ccc4[nH]3)c2N2CCC(N)CC2)c1` [Compound 17, N-[21-(4-{[4-(4-aminopiperidin-1-yl)-3-(5-chloro-1H-1,3-benzodiazol-2-yl)-5-(3-fluoro-5-methylphenyl)pyridin-2-yl]amino}piperidin-1-yl)-21-oxo-3,6,9,12,15,18-hexaoxahenicosan-1-yl]-2-{3,16,19-trioxo-2,17,18-trioxa-5,8,11,14-tetraaza-1-indatricyclo[9.6.3.2^5,^14]docosan-8-yl}acetamide], 0.1 nM.
With `Cc1cc(F)cc(-c2cnc(NCCCNC(=O)CCOCCOCCOCCOCCOCCNC(=O)CN3CCN(CC(=O)O)CCN(CC(=O)O)CCN(CC(=O)O)CC3)c(-c3nc4cc(Cl)ccc4[nH]3)c2N2CCC(N)CC2)c1` [Compound 3, 2-{7-[{{17-[(3-{[4-(4-aminopiperidin-1-yl)-3-(5-chloro-1H-1,3-benzodiazol-2-yl)-5-(3-fluoro-5-methylphenyl)pyridin-2-yl]amino}propyl)carbamoyl]-3,6,9,12,15-pentaoxaheptadecan-1-yl}carbamoyl)methyl]-4,10-bis(carboxymethyl)-1,4,7,10-tetraazacyclododecan-1-yl}acetic acid], the EC50 came out at 0.14 nM.
`Cc1cc(F)cc(-c2cnc(NCCOCCOCCOCCOCCNC(=O)CN3CCN(CC(=O)O)CCN(CC(=O)O)CCN(CC(=O)O)CC3)c(-c3ccc(C(F)(F)F)cc3)c2N2CCC(N)CC2)c1` [Compound 5, 2-(4-{[(14-{[4-(4-aminopiperidin-1-yl)-5-(3-fluoro-5-methylphenyl)-3-[4-(trifluoromethyl)phenyl]pyridin-2-yl]amino}-3,6,9,12-tetraoxatetradecan-1-yl)carbamoyl]methyl}-7,10-bis(carboxymethyl)-1,4,7,10-tetraazacyclododecan-1-yl)acetic acid]: the EC50 was 0.66 nM.

The same assay, now with this note: hSST2 cAMP Avg EC50 (nM), CHO-K1 cells stably expressing human SST2, 20 min.
In turn, `CC[C@@]1(O)C(=O)OCc2c1cc1n(c2=O)Cc2c-1nc1cc(F)c(C)c3c1c2[C@@H](NC(=O)OCc1ccc(NC(=O)[C@H](CCCNC(N)=O)NC(=O)[C@@H](NC(=O)CCOCCC(=O)NCCNc2ncc(-c4cc(C)cc(F)c4)c(N4CCC(N)CC4)c2-c2nc4ccc(Cl)cc4[nH]2)C(C)C)c(O[C@@H]2O[C@H](C(=O)O)[C@@H](O)[C@H](O)[C@H]2O)c1)CC3` [Compound 73] gave an EC50 of 0.49 nM.
Same read-out and setting: under `CC[C@@]1(O)C(=O)OCc2c1cc1n(c2=O)Cc2c-1nc1cc(F)c(C)c3c1c2[C@@H](NC(=O)OCc1ccc(NC(=O)[C@H](CCCNC(N)=O)NC(=O)[C@@H](NC(=O)CCOCCOCCOCCOCCC(=O)NCCNc2ncc(-c4cc(C)cc(F)c4)c(N4CCC(N)CC4)c2-c2nc4ccc(Cl)cc4[nH]2)C(C)C)c(O[C@@H]2O[C@H](C(=O)O)[C@@H](O)[C@H](O)[C@H]2O)c1)CC3` [Compound 74] stands 0.31 nM.

The record behind these values is patent US12134610B2, “Somatostatin subtype-2 receptor (SST2R) targeted therapeutics and uses thereof” (priority 2022, dated 2024).
